Assay results: patent US10653648B2, “Histone acetyltransferase activators and compositions and uses thereof” (THE TRUSTEES OF COLUMBIA UNIVERSITY IN THE CITY OF NEW YORK, priority 2016, dated 2020)

Tests used:
[1] = cited from earlier work
[2] = system: Pfeiffer (EP300 wt/CREBBP mut); test: Synergy with romidepsin, Excess Over Bliss; type: cell-based; conditions: in combination with romidepsin, 72 hrs
Description: (§1) FIGS. 22A-E show the synergy effect of JF1, a HAT activator compound, with romidepsin (a pan-class HDAC inhibitor) in B-cell lymphoma cell lines. Synergy between JF1 and romidepsin was evaluated in Pfeiffer (EP300 wt/CREBBP mut) and SUDHL-10 cells (EP300 mut/CREBBP Δ). Excess Over Bliss was calculated. Drug synergy will be confirmed by Excess over bliss (EOB). Bliss is calculated by the following formula: X=(A+B)−(A*B); where X designates the combined response for the two single compounds with effects (inhibition) A and B. The difference between Bliss and observed growth inhibition (Y) induced by combinations of drugs A and B at the same dose is the termed EOB (EOB=Y−X) 18,19. An EOB>10 connotes synergy. […] Synergy effect of JF1 and romidepsin was also assessed in a panel of B-cell lymphoma cell lines (N=5) (FIGS. 22C-22E). Cells were treated by different concentrations of JF1 and romidepsin for 48 hrs (FIG. 22C) and 72 hrs (FIG. 22D) and an Excess Over Bliss was calculated for both time points for all five cell lines. SUDHL-6 and Pfeiffer (Bold) were treated 2, 2.5, […] JF1, whereas the rest of cell lines were treated with 2, 3, 4 μM JF1. Synergy is defined by an Excess Over Bliss of 10. […]
(§2) Cells were exposed to increasing concentrations of YF2 and romidepsin in various combinations for 72 hrs and Excess Over Bliss (EOB) was calculated.

[3] = system: SUDHL-10 cells (EP300 mut/CREBBP mut); test: Histone acetylation quantified by mass spectrometry; type: cell-based; conditions: combination with romidepsin (1.5 nM), YF2 6 uM, 48 hours
Description: (§3) FIGS. 25A-B compare the synergy effects that HAT-activators JF1 and YF2 in combination with romidepsin have on histone acetylation in B-cell lymphoma cell lines, as quantified by mass spectrometry. In these experiments cells were seeded at 5,000 cells/mL and exposed to YF2 (6 uM), JF1 (3 uM) and romidepsin (1.5 nM) alone and in combinations for 48 hours. Following treatment, SUDHL-6 (EP300 mut/CREBBP mut, FIG. 25A) and SUDHL-10 cells (EP300 mut/CREBBP mut, FIG. 25B) were harvested for histone extraction.
The synergy trend for the SUDCL-6 cell line is evident for SUDCL-10 as well (FIG. 25B). In the same manner as described above, SUDHL-10 cells were treated separately with romidepsin, JF1, YF2, JF1/romidepsin, and YF2/romidepsin and the fold change in histone acetylation was measured.

[4] = system: seven B-cell lymphoma cell lines; test: Synergy with romidepsin, Excess Over Bliss, cell line panel; type: cell-based; conditions: in combination with romidepsin, 72 hrs
Description: as §1, §2

SUDHL-6 = test: Histone H3 acetylation by Western Blot; type: cell-based; conditions: in combination with romidepsin, 48 hours
Description: (§4) FIG. 26 provides a Western Blot showing the effect of JF1 and YF2 alone and in combination with romidepsin on histone acetylation in HAT-mutated cells lines. Cells were exposed to YF2 and romidepsin alone and in combinations for 48 hours in SUDHL-6 and SUDHL-10 (EP300 mut/CREBBP mut). The synergistic effect of YF2 on histone acetylation was evaluated by Western Blot with histone H3 serving as loading control.

SUDHL-10 = test: Histone H3 acetylation by Western Blot; type: cell-based; conditions: in combination with romidepsin, 48 hours
Description: as §4

[5] = system: SUDHL-6 (EP300 mut/CREBBP mut); test: Histone acetylation quantified by mass spectrometry; type: cell-based; conditions: combination with romidepsin (1.5 nM); YF2 6 uM, JF1 3 uM; 48 hours
Description: as §3
For each, a synergy effect, calculated as a fold change of treatment vs. control, was observed showing an increase in histone acetylation for JF1/romidepsin and YF2/romidepsin compared to individual treatment of the cells with either JF1, YF2, or romidepsin alone (FIG. 25A).

Row | Compound | solubility [1] | strong synergy response (EOB of at least 20) [2] | global acetylation of histones compared with single agent effects ([3]; JF1 3 uM) | H3:K9AC maximum synergy effect on acetylation [3] | cell lines with strong synergy (EOB of at least 20) [4] | cell lines with strong synergy (EOB of at least 20), percentage [4] [%] | global acetylation of Histone H3 compared with single agent effects (SUDHL-6) | global acetylation of Histone H3 compared with single agent effects (SUDHL-10) | H3:K9AC increase in acetylation vs. YF2 or JF1 alone [5] [fold] | H3:K9AC increase in acetylation vs. control [5] [fold] | H3:K9AC increase in acetylation vs. romidepsin [5] [fold] | global acetylation of histones compared with single agent effects [5]
1 | CCOc1ccccc1C(=O)Nc1ccc(Cl)c(C(F)(F)F)c1 [CTB] | insoluble | – | – | – | – | – | – | – | – | – | – | –
2 | CCCCCCCCCCCCCCCc1cccc(OCC)c1C(=O)Nc1ccc(Cl)c(C(F)(F)F)c1 [CTPB] | insoluble | – | – | – | – | – | – | – | – | – | – | –
3 | CCOc1cccc(OCCN(C)C)c1C(=O)Nc1ccc(Cl)c(C(F)(F)F)c1 [YF2] | – | fail to show a strong response | induced the global acetylation of histones | about 1.6 fold | 6 out of 7 | 86 | induced the global acetylation of Histone H3 | induced the global acetylation of Histone H3 | 8 | 10 | ~2 | induced the global acetylation of histones
